What follows are molecules tested against T1, JNK1 (Homo sapiens, UniProt P45983) (assay: JNK1 biochemical assays (one or more of: time resolved fluorescence, Z'-LYTE Cascade, radioactive)). Conditions: Table 2; JNK1 IC50 activity level; read-out: Act. Level.
T1 construct: purchased Carna Biosciences
T1 sequence (P45983 whole entry): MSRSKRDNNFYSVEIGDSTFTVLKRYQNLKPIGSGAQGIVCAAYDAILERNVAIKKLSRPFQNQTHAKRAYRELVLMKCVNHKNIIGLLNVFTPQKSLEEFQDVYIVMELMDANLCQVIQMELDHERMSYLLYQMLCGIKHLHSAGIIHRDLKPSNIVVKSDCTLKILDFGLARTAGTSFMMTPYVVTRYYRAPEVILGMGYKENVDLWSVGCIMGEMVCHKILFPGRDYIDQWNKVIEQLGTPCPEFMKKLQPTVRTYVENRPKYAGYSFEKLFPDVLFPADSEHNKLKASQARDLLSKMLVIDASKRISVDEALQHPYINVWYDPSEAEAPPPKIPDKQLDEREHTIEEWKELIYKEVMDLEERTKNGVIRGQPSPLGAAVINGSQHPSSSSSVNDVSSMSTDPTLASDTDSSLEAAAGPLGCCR

IC50	Structure (SMILES)
1000 to 10000 nM	NC(=O)c1cnc(N2CCC(C(N)=O)CC2)nc1Nc1ccccc1 [Example B-37, 2-(4-carbamoylpiperidin-1-yl)-4-(phenylamino)pyrimidine-5-carboxamide]
800 to 1000 nM	COCCNc1ncc(C(N)=O)c(Nc2ccccc2)n1 [Example B-69, 2-(2-methoxyethylamino)-4-(phenylamino)pyrimidine-5-carboxamide]
200 to 800 nM	COc1ccc(CNc2ncc(C(N)=O)c(Nc3ccccc3)n2)cc1OC [Example B-43, 2-(3,4-dimethoxybenzylamino)-4-(phenylamino)pyrimidine-5-carboxamide]
< 200 nM	NC(=O)c1cnc(N[C@H]2CC[C@H](N)CC2)nc1Nc1ccccc1 [Example B-7, 2-((1r,4r)-4-aminocyclohexylamino)-4-(phenylamino)pyrimidine-5-carboxamide]
< 200 nM	COc1ccc(Nc2ncc(C(N)=O)c(Nc3ccccc3)n2)cc1F [Example B-27, 2-(3-fluoro-4-methoxyphenylamino)-4-(phenylamino)pyrimidine-5-carboxamide]
800 to 1000 nM	NC(=O)c1cnc(N[C@H]2CCc3ccccc3C2)nc1N[C@@H]1CCC[C@H](O)C1 [Example B-85, 4-((1R,3)S-3-hydroxycyclohexylamino)-2-((S)-1,2,3,4-tetrahydronaphthalen-2-ylamino)pyrimidine-5-carboxamide]
1000 to 10000 nM	N#Cc1cnc(NC2CCCCC2)nc1Nc1ccccc1 [Example B-86, 2-(cyclohexylamino)-4-(phenylamino)pyrimidine-5-carbonitrile]
< 200 nM	NC(=O)c1cnc(N[C@@H]2CCc3ncccc3C2)nc1N[C@@H]1CCC[C@H](O)C1 [Example B-76, 4-((1R,3S)-3-hydroxycyclohexylamino)-2-((R)-5,6,7,8-tetrahydroquinolin-6-ylamino)pyrimidine-5-carboxamid]
200 to 800 nM	NC(=O)c1cnc(NCC2CC2)nc1Nc1ccccc1 [Example B-35, 2-(cyclopropylmethylamino)-4-(phenylamino)pyrimidine-5-carboxamide]

Same assay, conditions: Table 3; JNK1 IC50 activity level; read-out: Act. Level

IC50	Structure (SMILES)
800 to 1000 nM	CCO[C@H]1CC[C@H](Nc2ncc(C#N)c(N[C@H]3CC[C@H](O)CC3)n2)CC1 [Example C-25, 2-((1r,4r)-4-ethoxycyclohexylamino)-4-((1r,4r)-4-hydroxycyclohexylamino) pyrimidine-5-carbonitrile]
200 to 800 nM	CCO[C@H]1CC[C@H](Nc2ncc(C#N)c(N[C@@H]3CCCOC3)n2)CC1 [Example C-26, 2-((1r,4R)-4-ethoxycyclohexylamino)-4-((R)-tetrahydro-2H-pyran-3-ylamino)pyrimidine-5-carbonitrile]
200 to 800 nM	CCO[C@H]1CC[C@H](Nc2ncc(C#N)c(NC3CCCC3)n2)CC1 [Example C-23, 4-(cyclopentylamino)-2-((1r,4r)-4-ethoxycyclohexylamino) pyrimidine-5-carbonitrile]
1000 to 10000 nM	CO[C@H]1CC[C@H](Nc2ncc(C#N)c(N[C@H]3CCCC[C@](C)(O)C3)n2)CC1 [Example C-51, 4-((1S,3S)-3-hydroxy-3-methylcycloheptylamino)-2-((1r,4S)-4-methoxycyclohexylamino) pyrimidine-5-carbonitrile]

Same assay, conditions: one or more of the JNK1 biochemical assays; read-out: Act. Level (JNK1 IC50 activity level)

IC50	Structure (SMILES)
< 200 nM	CC(C)(C)Nc1nc(NC23CCC(O)(CC2)C3)ncc1C(N)=O [Example 399, 4-(tert-butylamino)-2-(4-hydroxybicyclo[2.2.1]heptan-1-ylamino)pyrimidine-5-carboxamide]
< 200 nM	NC(=O)c1cnc(N[C@H]2CC[C@H](O)CC2)nc1NCCC1CC1 [Example 218, 4-(2-cyclopropylethylamino)-2-((1r,4r)-4-hydroxycyclohexylamino)pyrimidine-5-carboxamide]
< 200 nM	CC(C)C(C)(C)Nc1nc(N[C@H]2CC[C@H](O)CC2)ncc1C(N)=O [Example 275, 4-(2,3-dimethylbutan-2-ylamino)-2-((1r,4r)-4-hydroxycyclohexylamino)pyrimidine-5-carboxamide]
< 200 nM	CC12CC(Nc3nc(NC45CCC(O)(CC4)C5)ncc3C(N)=O)(C1)C2 [Example 490, 2-(4-hydroxybicyclo[2.2.1]heptan-1-ylamino)-4-(3-methylbicyclo[1.1.1]pentan-1-ylamino)pyrimidine-5-carboxamide]
< 200 nM	CCC(C)(C)Nc1nc(NC23CCC(O)(CC2)C3)ncc1C(N)=O [Example 452, 2-(4-hydroxybicyclo[2.2.1]heptan-1-ylamino)-4-(tert-pentylamino)pyrimidine-5-carboxamide]
< 200 nM	CC(C)(C)Nc1nc(NC2CCCC(O)CC2)ncc1C(N)=O (stereo not drawn) [Example 251, 4-(tert-butylamino)-2-(4-hydroxycycloheptylamino)pyrimidine-5-carboxamide]
< 200 nM	CC(C)(Nc1nc(NC2CCOCC2)ncc1C(N)=O)C1CC1 [Example 467, 4-(2-cyclopropylpropan-2-ylamino)-2-(tetrahydro-2H-pyran-4-ylamino)pyrimidine-5-carboxamide]
< 200 nM	CCC(C)(CC)Nc1ncc(C(N)=O)c(N[C@@H]2CC[C@@H](C)[C@H](O)C2)n1 [Example 345, 4-((1R,3R,4R)-3-hydroxy-4-methylcyclohexylamino)-2-(3-methylpentan-3-ylamino)pyrimidine-5-carboxamide]
< 200 nM	C[C@]1(O)CCC[C@@H](Nc2nc(NC3CCC3)ncc2C(N)=O)C1 [Example 340, 2-(cyclobutylamino)-4-((1R,3S)-3-hydroxy-3-methylcyclohexylamino)pyrimidine-5-carboxamide]
< 200 nM	CCC(C)(C)Nc1ncc(C(N)=O)c(N[C@@H]2CCC[C@H](O)C2)n1 [Example 351, 4-((1R,3S)-3-hydroxycyclohexylamino)-2-(tert-pentylamino)pyrimidine-5-carboxamide]
< 200 nM	CCO[C@H]1CC[C@H](Nc2ncc(C(N)=O)c(NC(C)(C)C(C)C)n2)CC1 [Example 273, 4-(2,3-dimethylbutan-2-ylamino)-2-((1r,4r)-4-ethoxycyclohexylamino)pyrimidine-5-carboxamide]
< 200 nM	CC1(Nc2nc(N[C@H]3CC[C@H](OC(F)F)CC3)ncc2C(N)=O)CCC1 [Example 416, 2-((1r,4r)-4-(difluoromethoxy)cyclohexylamino)-4-(1-methylcyclobutylamino)pyrimidine-5-carboxamide]
< 200 nM	C[C@@H]1CC[C@@H](Nc2nc(NC3(C4CC4)CC3)ncc2C(N)=O)C[C@H]1O [Example 474, 2-(bi(cycloprop)ylamino)-4-((1R,3R,4R)-3-hydroxy-4-methylcyclohexylamino)pyrimidine-5-carboxamide]
< 200 nM	CCO[C@H]1CC[C@H](Nc2ncc(C(N)=O)c(N[C@H](C)C3CC3)n2)CC1 [Example 411, 4-((R)-1-cyclopropylethylamino)-2-((1r,4R)-4-ethoxycyclohexylamino)pyrimidine-5-carboxamide]

Same assay, conditions: tested in one or more of the JNK1 biochemical assays; read-out: Act. Level (JNK1 biochemical assay IC50 activity level)

Structure (SMILES)	IC50
CCC(=O)N1CCC(Nc2ncc(C(N)=O)c(N[C@H]3CC[C@@H](O)CC3)n2)CC1 [Example A-89, 4-((1s,4s)-4-hydroxycyclohexylamino)-2-(1-propionylpiperidin-4-ylamino)pyrimidine-5-carboxamide]	< 200 nM
CO[C@H]1CC[C@H](Nc2ncc(C(N)=O)c(N[C@H]3CCCNC3)n2)CC1 [Example A-48, 2-((1r,4S)-4-methoxycyclohexylamino)-4-((S)-piperidin-3-ylamino)pyrimidine-5-carboxamide]	800 to 1000 nM
CC(C)Nc1nc(NC2CCC(F)(F)CC2)ncc1C(N)=O [Example A-3, 2-(4,4-difluorocyclohexylamino)-4-(isopropylamino)pyrimidine-5-carboxamide]	< 200 nM
CO[C@H]1CC[C@H](Nc2ncc(C(N)=O)c(NC3CCOCC3)n2)CC1 [Example A-55, 2-((1r,4r)-4-methoxycyclohexylamino)-4-(tetrahydro-2H-pyran-4-ylamino)pyrimidine-5-carboxamide]	200 to 800 nM

The next lines start with the values.

IC50	Structure (SMILES)
< 200 nM	CN(C)C(=O)[C@H]1CC[C@H](Nc2ncc(C(N)=O)c(N[C@@H]3CCCOC3)n2)CC1 [Example A-194, 2-((1r,4R)-4-(dimethylcarbamoyl)cyclohexylamino)-4-((R)-tetrahydro-2H-pyran-3-ylamino)pyrimidine-5-carboxamide]
< 200 nM	CO[C@H]1CC[C@H](Nc2ncc(C(N)=O)c(N[C@H]3CCC[C@@H]3O)n2)CC1 [Example A-91, 4-((1S,2S)-2-hydroxycyclopentylamino)-2-((1r,4S)-4-methoxycyclohexylamino)pyrimidine-5-carboxamide]
800 to 1000 nM	CC(C)CC(=O)N[C@H]1CC[C@@H](Nc2nc(NC3CC3)ncc2C(N)=O)CC1 [Example A-138, 2-(cyclopropylamino)-4-((1s,4s)-4-(3-methylbutanamido)cyclohexylamino)pyrimidine-5-carboxamide]
< 200 nM	CCO[C@H]1CC[C@H](Nc2ncc(C(N)=O)c(N[C@@H]3CC[C@@H](C)[C@H](O)C3)n2)CC1 [Example A-172, 2-((1r,4R)-4-ethoxycyclohexylamino)-4-((1R,3R,4R)-3-hydroxy-4-methylcyclohexylamino)pyrimidine-5-carboxamide]
< 200 nM	NC(=O)c1cnc(NC2CCCCC2)nc1NC1CCCC1 [Example A-149, 2-(cyclohexylamino)-4-(cyclopentylamino)pyrimidine-5-carboxamide]
200 to 800 nM	NC(=O)c1cnc(NC2CC2)nc1N[C@H]1CC[C@@H](CO)CC1 [Example A-136, 2-(cyclopropylamino)-4-((1s,4s)-4-(hydroxymethyl)cyclohexylamino)pyrimidine-5-carboxamide]
< 200 nM	CCO[C@H]1CC[C@H](Nc2ncc(C(N)=O)c(NC3CCC3)n2)CC1 [Example A-197, 4-(cyclobutylamino)-2-((1r,4r)-4-ethoxycyclohexylamino)pyrimidine-5-carboxamide]
< 200 nM	CO[C@H]1CCC[C@@H](Nc2ncc(C(N)=O)c(N[C@@H]3CCC[C@H](O)C3)n2)CC1 [Example A-163, 4-((1R,3S)-3-hydroxycyclohexylamino)-2-((1R,4S)-4-methoxycycloheptylamino)pyrimidine-5-carboxamide]

Reference: patent US12129237B2, “Substituted diaminocarboxamide and diaminocarbonitrile pyrimidines, compositions thereof, and methods of treatment therewith” (SIGNAL PHARMACEUTICALS, LLC, priority 2011, dated 2024)
